Results from patent EP4725957A1, “GROUP OF CYCLIC ALKALINE LIPOPEPTIDE COMPOUNDS, AND PREPARATION METHOD THEREFOR AND USE THEREOF” (Institute of Medicinal Biotechnology, Chinese Academy of …, priority 2023, dated 2024).
Values after ≈ are worked out from the molar mass of the structure shown. Numbered stars: 1 amine (or outer) side, 2 acyl side, 3 side chain; on linkers, the order of the positions; unused ones are H or OH. Bridge positions count the residues as written; N and C are the ends. Square brackets hold non-standard residues; d marks the D form. Peptide text beside a SMILES is read from it. * marks the point of attachment. X3 = O=C([C@@H](Cc1ccc(CS(=O)(=O)O)cc1)N[*:1])[*:2]; Dab(CH2SO3H) = N[C@@H](CCNCS(=O)(=O)O)C(=O)O; Heptanoyl(6-Me) = CC(C)CCCCC(=O)*; Nonanoyl = CCCCCCCCC(=O)*; X1 = CC[C@H](C)CCCCC(=O)*; Heptanoyl = CCCCCCC(=O)*; Orn = NCCC[C@H](N)C(=O)O; Dab = NCC[C@H](N)C(=O)O; Dap = NC[C@H](N)C(=O)O

Assays:
Type in all cases: cell-based
[1] = Nephrotoxicity assay: in vitro cytotoxicity of HK-2 cells by CCK-8 assay; settings: human, HK-2 cells (human renal), 72 h incubation with drug-containing medium
In short: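 HK-2 human renal cells in RPMI-1640 with 10% FBS were exposed to compounds at final 12.5–500 µg/mL for 72 h, then CCK-8 for 3 h and OD450 read. Viability was normalised to drug-free wells; IC50 came from logarithmic regression over three repeats, with polymyxin B as positive drug.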

[2] = tested on: Escherichia coli ATCC BAA-2523; settings: ATCC BAA-2523
In short: (§1)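 Minimal inhibitory concentrations are measured following CLSI microdilution guidance in MH broth. Test concentrations run from 64 down to 0.03 mg/L in doubling steps, with a final bacterial load of (2-4) × 10^5 CFU/mL and 16-20 h incubation at 35-37°C.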

[3] = tested on: Pseudomonas aeruginosa ATCC 27853; settings: ATCC 27853
In short: as §1

[4] = tested on: Klebsiella pneumoniae ATCC BAA-1705 (KPC); settings: ATCC BAA-1705
In short: as §1

[5] = tested on: Escherichia coli ATCC BAA-2340 (KPC); settings: ATCC BAA-2340
In short: as §1

[6] = tested on: Acinetobacter baumannii NCTC 13304 (OXA-27); settings: NCTC 13304
In short: as §1

[7] = tested on: Klebsiella pneumoniae KPN+19-15; settings: KPN+19-15
In short: as §1

[8] = tested on: Pseudomonas aeruginosa PAE19-3; settings: PAE19-3
In short: as §1

[9] = tested on: Acinetobacter baumannii ABA19-1; settings: ABA19-1
In short: as §1

Row | SMILES | IC50 at 72 h [1] [µg/mL] | MIC [2] [µg/mL] | MIC [3] [µg/mL] | MIC [4] [µg/mL] | MIC [5] [µg/mL] | MIC [6] [µg/mL] | MIC [7] [µg/mL] | MIC [8] [µg/mL] | MIC [9] [µg/mL]
1 | CCCCCCCCC(=O)N[C@@H](CCN)C(=O)N[C@H](C(=O)N[C@@H](CCCN)C(=O)N[C@H]1CCNC(=O)[C@H]([C@@H](C)O)NC(=O)[C@H](CCN)NC(=O)[C@H](CCN)NC(=O)[C@H]([C@@H](C)O)NC(=O)[C@@H](Cc2ccccc2)NC(=O)[C@H](CCN)NC1=O)[C@@H](C)O [Compound 30, Nonanoyl-Dab-Thr-Orn-ring(4-10)[Dab-Dab-D-Phe-Thr-Dab-Dab-Thr]] (Nonanoyl-[Dab]T[Orn][Dab][Dab][dF]T[Dab][Dab]T; lactam 4-C) | 270 ± 13.1 (≈ 224 µM) | 0.03 (≈ 0.0249 µM) | 0.03 (≈ 0.0249 µM) | 0.03 (≈ 0.0249 µM) | 0.03 (≈ 0.0249 µM) | 0.06 (≈ 0.0498 µM) | 0.03 (≈ 0.0249 µM) | 0.5 (≈ 0.415 µM) | 0.125 (≈ 0.104 µM)
2 | CC(C)CCCCC(=O)N[C@@H](CCCN)C(=O)N[C@H](C(=O)N[C@H](CO)C(=O)N[C@H]1CCNC(=O)[C@H]([C@@H](C)O)NC(=O)[C@H](CCN)NC(=O)[C@H](CCN)NC(=O)[C@H]([C@@H](C)O)NC(=O)[C@@H](Cc2ccccc2)NC(=O)[C@H](CCN)NC1=O)[C@@H](C)O [Compound 57, 6-methylheptanoyl-Orn-Thr-D-Ser-ring(4-10)[Dab-Dab-D-Phe-Thr-Dab-Dab-Thr]] ({Heptanoyl(6-Me)}-[Orn]T[dS][Dab][Dab][dF]T[Dab][Dab]T; lactam 4-C) | > 500 | 0.125 (≈ 0.106 µM) | 64 (≈ 54.3 µM) | 0.25 (≈ 0.212 µM) | 0.125 (≈ 0.106 µM) | 0.25 (≈ 0.212 µM) | 0.5 (≈ 0.424 µM) | 4 (≈ 3.39 µM) | 0.25 (≈ 0.212 µM)
3 | CCCCCCCCC(=O)N[C@@H](CCN)C(=O)N[C@H](C(=O)N[C@@H](CN)C(=O)N[C@H]1CCNC(=O)[C@H]([C@@H](C)O)NC(=O)[C@H](CCN)NC(=O)[C@H](CCN)NC(=O)[C@H](CC(C)C)NC(=O)[C@@H](Cc2ccccc2)NC(=O)[C@H](CCN)NC1=O)[C@@H](C)O [Compound 40, Nonanoyl-Dab-Thr-Dap-ring(4-10)[Dab-Dab-D-Phe-Leu-Dab-Dab-Thr]] (Nonanoyl-[Dab]T[Dap][Dab][Dab][dF]L[Dab][Dab]T; lactam 4-C) | 158 ± 6.4 (≈ 133 µM) | 0.06 (≈ 0.0504 µM) | 0.06 (≈ 0.0504 µM) | 0.06 (≈ 0.0504 µM) | 0.06 (≈ 0.0504 µM) | 0.06 (≈ 0.0504 µM) | 0.06 (≈ 0.0504 µM) | 0.5 (≈ 0.42 µM) | 0.06 (≈ 0.0504 µM)
4 | CC(C)CCCCC(=O)N[C@@H](CCN)C(=O)N[C@H](C(=O)N[C@@H](CN)C(=O)N[C@H]1CCNC(=O)[C@H]([C@@H](C)O)NC(=O)[C@H](CCN)NC(=O)[C@H](CCN)NC(=O)[C@H]([C@@H](C)O)NC(=O)[C@@H](Cc2ccc(CS(=O)(=O)O)cc2)NC(=O)[C@H](CCN)NC1=O)[C@@H](C)O [Compound 116, 6-methylheptanoyl-Dab-Thr-Dap-ring(4-10)[Dab-Dab-D-Phe(4-CH2SO3H)-Thr-Dab-Dab-Thr]] ({Heptanoyl(6-Me)}-[Dab]T[Dap][Dab][Dab][X3]T[Dab][Dab]T; lactam 4-C) | > 500 | 0.03 (≈ 0.0239 µM) | 0.25 (≈ 0.199 µM) | 0.125 (≈ 0.0994 µM) | 0.03 (≈ 0.0239 µM) | 0.06 (≈ 0.0477 µM) | 0.125 (≈ 0.0994 µM) | 0.25 (≈ 0.199 µM) | 0.06 (≈ 0.0477 µM)
5 | CC(C)CCCCC(=O)N[C@@H](CCN)C(=O)N[C@H](C(=O)N[C@H](CO)C(=O)N[C@H]1CCNC(=O)[C@H]([C@@H](C)O)NC(=O)[C@H](CCN)NC(=O)[C@H](CCCN)NC(=O)[C@H]([C@@H](C)O)NC(=O)[C@@H](Cc2ccccc2)NC(=O)[C@H](CCN)NC1=O)[C@@H](C)O [Compound 77, 6-methylheptanoyl-Dab-Thr-D-Ser-ring(4-10)[Dab-Dab-D-Phe-Thr-Orn-Dab-Thr]] ({Heptanoyl(6-Me)}-[Dab]T[dS][Dab][Dab][dF]T[Orn][Dab]T; lactam 4-C) | > 500 | ≤0.03 | >64 | 0.25 (≈ 0.212 µM) | ≤0.03 | ≤0.03 | 0.5 (≈ 0.424 µM) | 64 (≈ 54.3 µM) | 0.06 (≈ 0.0509 µM)
6 | CC(C)CCCCC(=O)N[C@@H](CCN)C(=O)N[C@H](C(=O)N[C@H](CO)C(=O)N[C@H]1CCNC(=O)[C@H]([C@@H](C)O)NC(=O)[C@H](CCN)NC(=O)[C@H](CCNCS(=O)(=O)O)NC(=O)[C@H]([C@@H](C)O)NC(=O)[C@@H](Cc2ccccc2)NC(=O)[C@H](CCN)NC1=O)[C@@H](C)O [Compound 110, 6-methylheptanoyl-Dab-Thr-D-Ser-ring(4-10)[Dab-Dab-D-Phe-Thr-Dab(CH2SO3H)-Dab-Thr]] ({Heptanoyl(6-Me)}-[Dab]T[dS][Dab][Dab][dF]T[Dab(CH2SO3H)][Dab]T; lactam 4-C) | > 500 | 0.06 (≈ 0.0477 µM) | 0.25 (≈ 0.199 µM) | 0.125 (≈ 0.0993 µM) | 0.06 (≈ 0.0477 µM) | 0.06 (≈ 0.0477 µM) | 0.125 (≈ 0.0993 µM) | 0.5 (≈ 0.397 µM) | 0.25 (≈ 0.199 µM)
7 | CC[C@H](C)CCCCC(=O)N[C@@H](CCN)C(=O)N[C@H](C(=O)N[C@H](CO)C(=O)N[C@H]1CCNC(=O)[C@H]([C@@H](C)O)NC(=O)[C@H](CN)NC(=O)[C@H](CCN)NC(=O)[C@H]([C@@H](C)O)NC(=O)[C@@H](Cc2ccccc2)NC(=O)[C@H](CCN)NC1=O)[C@@H](C)O [Compound 81, (S)-6-methyloctanoyl-Dab-Thr-D-Ser-ring(4-10)[Dab-Dab-D-Phe-Thr-Dab-Dap-Thr]] (X1-[Dab]T[dS][Dab][Dab][dF]T[Dab][Dap]T; lactam 4-C) | > 500 | 0.03 (≈ 0.0258 µM) | >64 | 0.25 (≈ 0.215 µM) | 0.03 (≈ 0.0258 µM) | ≤0.03 | 0.5 (≈ 0.429 µM) | 64 (≈ 55 µM) | 0.06 (≈ 0.0515 µM)
8 | CC[C@H](C)CCCCC(=O)N[C@@H](CN)C(=O)N[C@H](C(=O)N[C@H](CO)C(=O)N[C@H]1CCNC(=O)[C@H]([C@@H](C)O)NC(=O)[C@H](CCN)NC(=O)[C@H](CCN)NC(=O)[C@H]([C@@H](C)O)NC(=O)[C@@H](Cc2ccccc2)NC(=O)[C@H](CCN)NC1=O)[C@@H](C)O [Compound 51, (S)-6-methyloctanoyl-Dap-Thr-D-Ser-ring(4-10)[Dab-Dab-D-Phe-Thr-Dab-Dab-Thr]] (X1-[Dap]T[dS][Dab][Dab][dF]T[Dab][Dab]T; lactam 4-C) | > 500 | ≤0.03 | 64 (≈ 55 µM) | 0.25 (≈ 0.215 µM) | ≤0.03 | 0.25 (≈ 0.215 µM) | 0.5 (≈ 0.429 µM) | 4 (≈ 3.44 µM) | 0.25 (≈ 0.215 µM)
9 | CC(C)CCCCC(=O)N[C@@H](CCN)C(=O)N[C@H](C(=O)N[C@@H](CCCN)C(=O)N[C@H]1CCNC(=O)[C@H]([C@@H](C)O)NC(=O)[C@H](CCN)NC(=O)[C@H](CCN)NC(=O)[C@H](CC(C)C)NC(=O)[C@@H](Cc2ccccc2)NC(=O)[C@H](CCN)NC1=O)[C@@H](C)O [Compound 47, 6-methylheptanoyl-Dab-Thr-Orn-ring(4-10)[Dab-Dab-D-Phe-Leu-Dab-Dab-Thr]] ({Heptanoyl(6-Me)}-[Dab]T[Orn][Dab][Dab][dF]L[Dab][Dab]T; lactam 4-C) | 358 ± 11.2 (≈ 297 µM) | 0.03 (≈ 0.0249 µM) | ≤0.03 | ≤0.03 | 0.03 (≈ 0.0249 µM) | 0.06 (≈ 0.0499 µM) | ≤0.03 | 0.25 (≈ 0.208 µM) | 0.125 (≈ 0.104 µM)
10 | CC[C@H](C)CCCCC(=O)N[C@@H](CCN)C(=O)N[C@H](C(=O)N[C@@H](CCN)C(=O)N[C@H]1CCNC(=O)[C@H]([C@@H](C)O)NC(=O)[C@H](CCN)NC(=O)[C@H](CCN)NC(=O)[C@H]([C@@H](C)O)NC(=O)[C@@H](Cc2ccccc2)NC(=O)[C@H](CCN)NC1=O)[C@@H](C)O [Compound 16, (S)-6-methyloctanoyl-Dab-Thr-Dab-ring(4-10)[Dab-Dab-D-Phe-Thr-Dab-Dab-Thr]] (X1-[Dab]T[Dab][Dab][Dab][dF]T[Dab][Dab]T; lactam 4-C) | > 500 | ≤0.03 | 0.5 (≈ 0.42 µM) | ≤0.03 | ≤0.03 | ≤0.03 | ≤0.03 | 0.5 (≈ 0.42 µM) | ≤0.03
11 | CCCCCCC(=O)N[C@@H](CCN)C(=O)N[C@H](C(=O)N[C@H](CO)C(=O)N[C@H]1CCNC(=O)[C@H]([C@@H](C)O)NC(=O)[C@H](CN)NC(=O)[C@H](CCN)NC(=O)[C@H]([C@@H](C)O)NC(=O)[C@@H](Cc2ccccc2)NC(=O)[C@H](CCN)NC1=O)[C@@H](C)O [Compound 84, Heptanoyl-Dab-Thr-D-Ser-ring(4-10)[Dab-Dab-D-Phe-Thr-Dab-Dap-Thr]] (Heptanoyl-[Dab]T[dS][Dab][Dab][dF]T[Dab][Dap]T; lactam 4-C) | > 500 | 0.25 (≈ 0.22 µM) | >64 | 0.25 (≈ 0.22 µM) | 0.25 (≈ 0.22 µM) | 0.03 (≈ 0.0264 µM) | 0.5 (≈ 0.44 µM) | 64 (≈ 56.3 µM) | 0.06 (≈ 0.0528 µM)
